According to article PMC9599641, “TNP Analogues Inhibit the Virulence Promoting IP3-4 Kinase Arg1 in the Fungal Pathogen Cryptococcus neoformans” (Biomolecules, 2022):
“Also recorded” adds a separate entry of the source. Like-named read-outs stand apart in the source and are kept apart here.

Key:
[1] = test system: rat IPMK; set-up: method as in PMID 24670057; details: read-out: Km of rat IPMK for ATP; IP3 used as the substrate; cited from earlier work
[2] = biological target: CaIpk2 (Candida albicans, UniProt Q59YE9); details: 200 µM IP3, ATP 25–400 µM
CaIpk2, sequence (Q59YE9 1-350): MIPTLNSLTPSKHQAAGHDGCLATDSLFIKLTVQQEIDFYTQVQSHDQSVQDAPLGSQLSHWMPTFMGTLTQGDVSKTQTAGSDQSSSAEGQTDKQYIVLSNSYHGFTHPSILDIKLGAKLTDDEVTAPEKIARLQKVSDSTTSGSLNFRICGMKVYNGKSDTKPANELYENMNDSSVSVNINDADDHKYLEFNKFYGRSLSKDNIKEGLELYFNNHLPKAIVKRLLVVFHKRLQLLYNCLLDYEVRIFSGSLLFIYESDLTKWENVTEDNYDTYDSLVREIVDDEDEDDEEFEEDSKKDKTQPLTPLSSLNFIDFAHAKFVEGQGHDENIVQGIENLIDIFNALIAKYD
Method: (§1) The kinetic properties of the purified recombinant enzymes were determined and compared using a Kinase-Glo® Max Luminescent Kinase Assay kit (Promega, Madison, WI, USA) in a reaction buffer consisting of 20 mM HEPES pH 6.8, 100 mM NaCl, 6 mM MgCl2, 20 µg/mL BSA, 1 mM DTT [14]. The IP3 concentration was fixed at 200 µM. The ATP starting concentrations ranged between 25 µM to 400 µM and the ATP remaining after up to 10-min reaction time was assessed by adding Kinase-Glo® reagent. An ATP standard curve (0–500 µM) was also generated using the same kit. The ATP concentration remaining was measured as luminescence using a SpectraMax iD5 plate reader. The relative luminescence unit (RLU) was converted to ATP concentration using the ATP standard curve. The reaction velocity was calculated for each starting ATP concentration and the data was fitted to the Michaelis-Menten equation using GraphPad Prism 9 to obtain Vmax and Km values.

[3] = biological target: T1, HsIPMK (Homo sapiens, UniProt Q8NFU5); details: 200 µM IP3, ATP 25–400 µM
T1 sequence (Q8NFU5 whole entry): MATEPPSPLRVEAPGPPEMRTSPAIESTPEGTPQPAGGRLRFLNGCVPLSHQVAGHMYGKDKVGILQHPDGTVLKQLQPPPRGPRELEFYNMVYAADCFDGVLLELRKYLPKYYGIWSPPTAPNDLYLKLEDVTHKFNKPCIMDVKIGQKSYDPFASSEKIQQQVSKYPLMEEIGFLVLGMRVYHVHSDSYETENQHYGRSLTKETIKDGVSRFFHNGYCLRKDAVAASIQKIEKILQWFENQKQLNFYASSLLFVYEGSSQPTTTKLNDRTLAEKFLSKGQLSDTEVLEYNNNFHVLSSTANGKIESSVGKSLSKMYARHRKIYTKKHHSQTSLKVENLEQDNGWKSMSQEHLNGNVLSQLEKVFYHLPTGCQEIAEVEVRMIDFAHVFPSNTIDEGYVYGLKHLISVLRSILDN
Method: as §1

[4] = biological target: T1, HsIPMK; details: read-out: Km for ATP, HsIPMK, cited from earlier work
[5] = Solubility observations; format: physicochemical; details: for Solubility in SPR analysis: SPR running buffer with 5% DMSO, KD could not be determined; for Solubility in enzyme assay conditions: 5% DMSO
[6] = test system: CnArg1 (IP3-4K from C. neoformans); assay: Kinase-Glo enzyme inhibition assay, recombinant CnArg1; format: biochemical; details: selectivity, ratio higher than 1 = more selective for CnArg1
Method: (§2) The 2,6-disubstituted purine compounds are ATP-competitive IPK inhibitors. […] The amount of IP3 and kinase used for each recombinant enzyme was determined following the manufacturer’s instructions, and this concentration was used to assess the inhibitory properties of TNP analogues against each of the recombinant enzymes.
(§3) The analogues were dissolved in DMSO. For the assay, the inhibitors were added to the reaction mixture to achieve a final concentration of 50 µM in 5% DMSO (1:20 dilution). To achieve inhibitor concentrations lower than 50 µM in the assay, the inhibitor stock was first serially diluted two-fold in DMSO and added to the reaction mixture, to achieve concentrations ranging between 0.8 μM and 50 µM in 5% DMSO. Once all analogues and their dilution series had been added, the reaction was started by adding an optimal amount of recombinant IP3-4K enzyme. The reaction was stopped after 10-min incubation at room temperature by adding a 50 µL of Kinase-Glo® reagent. The mixture was incubated at room temperature in the dark for 10–15 min. Luminescence (RLU) was measured using a SpectraMax iD5 and an integration time of 0.5 s. Percent enzyme activity was defined as (RLUnegative − RLUsample)/(RLUnegative − RLUpositive) × 100. ‘Positive’ refers to 100% enzyme activity (no inhibitor used as the positive control), while ‘negative’ refers to 0% enzyme activity (no enzyme used as the negative control).
(§4) Next, we determined the inhibitory properties of TNP. TNP is an ATP-competitive inhibitor [34]. […] IP3 and enzyme concentrations were also optimised following the manufacturer’s instructions. […] This optimal amount of IP3 was then used to test varying concentrations of the kinase ranging from 0 to 20 ng/µL. The amount of kinase that produced luminescence values in the linear range of the kinase titration curve was deemed to be the optimal kinase amount.

[7] = biological target: CnArg1 (IP3-4K from C. neoformans) (Cryptococcus neoformans var. grubii, UniProt J9W3G0); assay: as above; format: biochemical; details: 10 µM ATP, 50 µM IP3, 2.5 ng/µL enzyme, 10 min, room temperature, 5% DMSO; mean ± SEM
CnArg1 (IP3-4K from C. neoformans) (Cryptococcus neoformans var. grubii, UniProt J9W3G0), sequence (J9W3G0 entry or part of it): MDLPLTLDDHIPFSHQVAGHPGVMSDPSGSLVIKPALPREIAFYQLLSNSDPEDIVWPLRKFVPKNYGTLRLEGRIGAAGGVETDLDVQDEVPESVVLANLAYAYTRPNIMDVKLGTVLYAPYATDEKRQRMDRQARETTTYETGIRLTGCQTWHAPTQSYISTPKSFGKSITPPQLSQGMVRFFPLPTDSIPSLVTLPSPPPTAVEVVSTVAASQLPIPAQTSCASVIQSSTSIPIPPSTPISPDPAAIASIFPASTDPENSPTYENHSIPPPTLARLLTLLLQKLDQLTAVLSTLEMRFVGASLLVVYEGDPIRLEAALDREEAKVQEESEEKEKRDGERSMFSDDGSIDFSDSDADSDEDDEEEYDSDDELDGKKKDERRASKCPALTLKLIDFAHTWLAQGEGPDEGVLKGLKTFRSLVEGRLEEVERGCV
Method: as §2, §3, §4

[8] = biological target: T1, HsIPMK; assay: Kinase-Glo enzyme inhibition assay, recombinant HsIPMK; note: 6 ng/µL enzyme; format: biochemical; set-up: GST (N, cleaved yes); made in house; host or cells: E. coli BL21 (DE3); plasmid made by GenScript
Method: as §2, §3, §4

[9] = test system: human IP3K; set-up: method as in PMID 12210991; details: read-out: IC50 against IP3K; cited from earlier work
[10] = test system: rat IPMK; set-up: method as in PMID 24670057; details: at a concentration of 10 µM; cited from earlier work
[11] = test system: IP6K; set-up: method as in PMID 19208622; details: read-out: IC50 against IP6K; cited from earlier work
[12] = test system: CaIpk2 (IP3-4K from C. albicans); assay: Kinase-Glo enzyme inhibition assay, recombinant CaIpk2; format: biochemical, Candida albicans; details: tested up to 50 µM; 10 µM ATP, 25 µM IP3
Method: as §2
as §3, with “Percent enzyme activity was defined as (RLUnegative − RLUsample)/(RLUnegative − RLUpositive) × 100. ‘Positive’ refers to 100% enzyme activity (no inhibitor used as the positive control), while ‘negative’ refers to 0% enzyme activity (no enzyme used as the negative control).” left out
Next, we determined the inhibitory properties of TNP. […] The amount of kinase that produced luminescence values in the linear range of the kinase titration curve was deemed to be the optimal kinase amount.

Row | SMILES | HsIPMK/CnArg1 IC50 ratio [6] | IC50 [7] [µM] | IC50 [8] [µM] | also measured
1 | Nc1ncnc2c1ncn2[C@@H]1O[C@H](COP(=O)(O)OP(=O)(O)OP(=O)(O)O)[C@@H](O)[C@H]1O [ATP] |  |  |  | Km [1]: 64 µM; Vmax, CaIpk2 [2]: 21 ± 3 µmol ATP/mg protein/min; Vmax, HsIPMK [3]: 0.6 ± 0.07 µmol ATP/mg protein/min; Km ([3]; read-out: Km for ATP, HsIPMK, mean ± SEM): 128 ± 35 µM; Km ([4]; IP4 used as the substrate): 10 µM; Km ([4]; PIP2 used as the substrate): 61 ± 6 µM
2 | FC(F)(F)c1cccc(CNc2nc(NCc3ccccc3)c3nc[nH]c3n2)c1 [Compound 9] | 1.1 | 28 ± 7 | 32 ± 3 | Solubility in SPR analysis [5]: Poor solubility—ND
3 | FC(F)Oc1cccc(CNc2nc(NCc3ccccc3)c3nc[nH]c3n2)c1 [Compound 10] | 2.8 | 20 ± 1 | 55 ± 2 | 
4 | Cc1cccc(CNc2nc(NCc3ccccc3)c3nc[nH]c3n2)c1 [Compound 11] |  |  |  | Solubility in enzyme assay conditions [5]: poorly soluble; also recorded: Low solubility—ND
5 | FC(F)(F)Oc1cccc(CNc2nc(NCc3ccccc3)c3nc[nH]c3n2)c1 [Compound 12] |  | 77 ± 14 |  | 
6 | COc1cccc(CNc2nc(NCc3ccccc3)c3nc[nH]c3n2)c1 [Compound 13] | 6.0 |  |  | 
7 | Brc1cccc(CNc2nc(NCc3ccccc3)c3nc[nH]c3n2)c1 [Compound 14] |  | 44 ± 2 |  | 
8 | NCc1cccc(CNc2nc(NCc3ccccc3)c3[nH]cnc3n2)c1 [Compound 15] |  | 46 ± 22 |  | 
9 | COC(=O)c1cccc(CNc2nc(NCc3ccccc3)c3nc[nH]c3n2)c1 [Compound 16] | 3.4 | 14 ± 1 | 48 ± 2 | 
10 | O=C(O)c1cccc(CNc2nc(NCc3ccccc3)c3nc[nH]c3n2)c1 [Compound 17] |  | 45 ± 3 |  | 
11 | FC(F)(F)c1ccccc1CNc1nc(NCc2ccccc2)c2nc[nH]c2n1 [Compound 18] |  |  |  | Solubility in enzyme assay conditions [5]: poorly soluble; also recorded: Low solubility—ND
12 | FC(F)(F)c1ccc(CNc2nc(NCc3ccccc3)c3nc[nH]c3n2)cc1 [Compound 19] |  |  |  | Solubility in enzyme assay conditions [5]: poorly soluble; also recorded: Low solubility—ND
13 | FC(F)(F)Oc1ccccc1CNc1nc(NCc2ccccc2)c2nc[nH]c2n1 [Compound 20] |  | 71 ± 12 |  | 
14 | FC(F)(F)Oc1ccccc1CNc1nc(NCc2ccccc2)c2nc[nH]c2n1 [Compound 21] |  | 57 ± 6 |  | 
15 | FC(F)(F)Oc1ccc(CNc2nc(NCc3ccccc3)c3nc[nH]c3n2)cc1 [Compound 22] |  |  |  | CnArg1 IC50 [7]: Not inhibitory
16 | Fc1ccc(CNc2nc(NCc3ccccc3)c3nc[nH]c3n2)cc1 [Compound 23] | 2.6 | 21 ± 1 | 55 ± 4 | 
17 | COc1ccccc1CNc1nc(NCc2ccccc2)c2nc[nH]c2n1 [Compound 24] | 3.7 | 24 ± 1 | 89 ± 9 | 
18 | c1ccc(CNc2nc(NCc3ncccn3)nc3[nH]cnc23)cc1 [Compound 25] |  |  |  | CnArg1 IC50 [7]: Not inhibitory
19 | Cn1ccnc1CNc1nc(NCc2ccccc2)c2nc[nH]c2n1 [Compound 26] |  |  |  | CnArg1 IC50 [7]: Not inhibitory
20 | c1ccc(CNc2nc(NCC3CCOCC3)nc3[nH]cnc23)cc1 [Compound 27] | 3.5 | 35 ± 2 | 123 ± 80 | 

Row | SMILES | HsIPMK/CnArg1 IC50 ratio [6] | IC50 [7] [µM] | IC50 [8] [µM] | also measured
21 | OCCNc1nc(NCc2ccccc2)c2[nH]cnc2n1 [Compound 28] |  | 127 ± 32 |  | 
22 | COCCNc1nc(NCc2ccccc2)c2nc[nH]c2n1 [Compound 29] |  | 75 ± 9 |  | 
23 | COCCNc1nc(NCc2cccc(C(F)(F)F)c2)nc2[nH]cnc12 [Compound 30] | 2.4 |  |  | 
24 | COCCNc1nc(NCc2cccc(Br)c2)nc2[nH]cnc12 [Compound 31] | 1.5 | 29 ± 3 | 43 ± 4 | 
25 | COCCNc1nc(NCc2cccc(I)c2)nc2[nH]cnc12 [Compound 32] | 4.0 | 12 ± 1 | 48 ± 3 | 
26 | COCCNc1nc(NCc2cccc(C(=O)OC)c2)nc2[nH]cnc12 [Compound 33] | 3.8 | 38 ± 5 | 144 ± 55 | 
27 | COCCNc1nc(NCc2cccc(C(=O)O)c2)nc2[nH]cnc12 [Compound 34] |  |  |  | CnArg1 IC50 [7]: Not inhibitory
28 | COCCNc1nc(NCc2cccnc2)nc2[nH]cnc12 [Compound 35] |  | 87 ± 9 |  | 
29 | COCCNc1nc(NCc2cccc(O)c2)nc2[nH]cnc12 [Compound 36] |  | 55 ± 6 |  | 
30 | COCCNc1nc(NCc2ccc(OC)cc2)nc2[nH]cnc12 [Compound 38] |  | 44 ± 6 |  | 
31 | COCCNc1nc(NCCc2ccc(OC)cc2)nc2[nH]cnc12 [Compound 39] | 0.9 | 22 ± 3 | 19 ± 1 | 
32 | COCCNc1nc(Nc2ccc(OC)cc2)nc2[nH]cnc12 [Compound 40] | 0.4 | 14 ± 1 | 5 ± 1 | 
33 | FC(F)(F)c1cccc(CNc2nc(N3CCOCC3)c3nc[nH]c3n2)c1 [Compound 41] | 3.4 | 24 ± 1 | 82 ± 9 | 
34 | FC(F)(F)c1cccc(CNc2nc(NC3CCOCC3)c3nc[nH]c3n2)c1 [Compound 42] | 3.7 |  |  | 
35 | FC(F)(F)c1cccc(CNc2nc(NCc3cccnc3)c3nc[nH]c3n2)c1 [Compound 43] | 2.8 | 27 ± 2 | 75 ± 8 | 
36 | COc1ccc(CNc2nc(NCc3cccc(C(F)(F)F)c3)nc3[nH]cnc23)cc1 [Compound 44] |  | 82 ± 13 |  | 
37 | CC(C)n1cnc2c(NCc3ccccc3)nc(NCc3cccc(C(F)(F)F)c3)nc21 [Compound 45] |  |  |  | CnArg1 IC50 [7]: did not have any inhibitory activity
38 | COCCNc1nc(NCc2cccc(Br)c2)nc2c1ncn2C [Compound 46] |  |  |  | CnArg1 IC50 [7]: did not have any inhibitory activity
39 | O=[N+]([O-])c1ccc(CNc2nc(NCc3cccc(C(F)(F)F)c3)nc3[nH]cnc23)cc1 [TNP, N2-(m-trifluorobenzylamino)-N6-(p-nitrobenzylamino)purine] | 0.3 |  |  | Solubility in SPR analysis [5]: Poor solubility—ND; IC50 [9]: 10 µM; Inhibition of rat IPMK [10]: does not inhibit; IC50 [11]: 470 nM; Inhibition of CaIpk2 [12]: did not inhibit; also recorded: no inhibitory activity
